Laboratory results: patent US20250114336A1, “USE OF ANTI-RETROVIRAL PROTEASE INHIBITORS FOR THE TREATMENT OF AMYOTROPHIC LATERAL SCLEROSIS (ALS)” (The Regents of the University of Colorado, a body corporate, priority 2023, published 2025)
Entries after “also recorded” stand apart in the source; their conditions may differ.

Target: T1, human PEG10 (Homo sapiens, UniProt Q86TG7)
T1 construct: expressed in transfected cells; host or cells: HEK293
T1 sequence (Q86TG7 1-708): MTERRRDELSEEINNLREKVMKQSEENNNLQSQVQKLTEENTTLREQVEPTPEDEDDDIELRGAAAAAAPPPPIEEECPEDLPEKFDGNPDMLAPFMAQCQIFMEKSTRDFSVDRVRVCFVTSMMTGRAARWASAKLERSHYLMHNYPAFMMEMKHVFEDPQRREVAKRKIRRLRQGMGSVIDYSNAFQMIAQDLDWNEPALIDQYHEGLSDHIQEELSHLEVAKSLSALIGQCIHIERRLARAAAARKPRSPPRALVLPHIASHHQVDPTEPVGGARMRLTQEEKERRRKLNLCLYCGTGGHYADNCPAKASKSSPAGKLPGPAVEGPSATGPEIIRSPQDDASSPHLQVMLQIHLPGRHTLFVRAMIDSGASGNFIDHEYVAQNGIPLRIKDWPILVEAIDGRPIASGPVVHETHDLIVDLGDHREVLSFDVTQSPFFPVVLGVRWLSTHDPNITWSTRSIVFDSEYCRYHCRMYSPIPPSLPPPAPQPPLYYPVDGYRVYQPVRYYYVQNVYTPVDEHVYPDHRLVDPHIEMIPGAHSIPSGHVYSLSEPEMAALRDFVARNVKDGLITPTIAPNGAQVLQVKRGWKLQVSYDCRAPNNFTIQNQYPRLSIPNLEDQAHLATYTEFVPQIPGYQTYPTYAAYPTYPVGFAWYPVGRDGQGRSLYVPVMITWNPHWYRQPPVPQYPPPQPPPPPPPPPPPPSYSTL
Assay: Western blot of PEG10 abundance and self-cleavage in HEK293 cells transfected with human PEG10
Type: cell-based
Settings: HEK293 cells transfected with WT human PEG10, incubated 24 hours with increasing concentrations of drug (up to 50 uM), compared to untreated
Experimental: FIG. 1: Western blot of PEG10 self-cleavage testing with antiretroviral compounds. HEK293 cells were transfected with either WT or a cleavage-incompetent mutant form of human PEG10 and incubated for 24 hours with the indicated concentrations of drug. After 24 hours, cells were lysed and imaged by western blot.
FIG. 2A-D: PEG10 abundance is decreased by ritonavir, but not indinavir. a-d) Bands identified in FIG. 1 were quantified and normalized to Tubulin for a) gag-pol, b) gag, c) CA fragment, and d) CA^NTD fragment. Shown is mean+/−SEM for four representative experiments; one sample from untreated indinavir and 50 uM of indinavir and ritonavir were not collected. Statistics were measured by One-way ANOVA with multiple comparisons to untreated; statistically significant comparisons are shown with asterisks. ANOVA summary significance is shown with straight line.
Shown is mean+/−SEM for four representative experiments; one sample from untreated indinavir and 50 uM of indinavir and ritonavir were not collected. Statistics were measured by One-way ANOVA with multiple comparisons to untreated; statistically significant comparisons are shown with asterisks. ANOVA summary significance is shown with straight line.
Applicants performed an assay using western blot to assess self-cleavage of transfected PEG10 (FIG. 1) with a negative control where the PEG10 protease is mutated. […]

CC(C)c1nc(CN(C)C(=O)N[C@H](C(=O)N[C@@H](Cc2ccccc2)C[C@H](O)[C@H](Cc2ccccc2)NC(=O)OCc2cncs2)C(C)C)cs1 [ritonavir]
PEG10 abundance (expression in the cell; bands normalized to Tubulin: gag-pol, gag, CA fragment, CA NTD fragment): decreased; also recorded: uniquely decreases PEG10 expression | Self-cleavage of PEG10 (ratios gag-pol to gag, CA fragment to gag, CA NTD fragment to gag): modestly affected; also recorded: modest effect
